Reference: patent publication US3995044A, “Pyridine carboxylic acid amides for mycobacterium infections” (priority 1974, dated 1976)
In brackets after ≈: the same amount, converted by molar mass.

What was measured:
[1] = test system: Mycobacterium tuberculosis H37Rv; test: In vivo action in guinea pigs infected with tuberculosis (Tb germ count in lung); details: 30 mg/kg orally, once daily from 14th day, 3 weeks (5 times per week)
Procedure: (§1) The animal experiments were above all carried out with white mice (CFI breed, Winkelmann, Kirchborchen) infected with Mycobacterium tuberculosis H37Rv. After intravenous infection with 10^4 -10^5 germ units/mouse, an oral or subcutaneous treatment was carried out once daily for a period of 2 weeks (that is to say 5 times per week). At predetermined intervals of time (11th, 14th and 17th day after infection) mice from the treatment groups were killed, the spleens were removed and standardised smear preparations were produced from the homogenate; the tubercle germ content in these was evaluated by means of fluorescence microscopy. […] The values obtained are grouped together in 5 rating groups and give a germ count index; the indices denote the following:
(§2) Index 0 corresponds to a reduction in the germ count of
(§3) Index 1 corresponds to a reduction in the germ count of
(§4) Index 2 corresponds to a reduction in the germ count of
(§5) >40-70% = distinct action
(§6) Index 3 corresponds to a reduction in the germ count of
Index 4 corresponds to a reduction in the germ count of
In addition to the experiments on mice infected with tuberculosis, experiments were carried out analogously on guinea pigs. In this case, the germ count was determined on the lung homogenate. The animals were infected subcutaneously intrainguinally with Mycobacterium tuberculosis H37Rv and were subjected to therapy once daily from the 14th day after infection over a period of 3 weeks, that is to say 5 times per week. The germ counts were determined in the 4th, 5th and 6th week after infection.

[2] = test system: Mycobacterium tuberculosis H37Rv; test: In vivo action in mice infected with tuberculosis (Tb germ count in spleen); parameters: species or system white mice (CFI breed); details: once daily, 2 weeks (5 times per week); for In vivo action, index of reduction in Tb germs, Tb-mice, orally: 100 mg/kg orally; for In vivo action, index of reduction in Tb germs, Tb-mice, subcutaneously: 100 mg/kg subcutaneously
Procedure: as §1, §2, §3, §4, §5, §6
Index 4 corresponds to a reduction in the germ count of […]

[3] = test system: Mycobacterium tuberculosis H37Rv; test: Minimum inhibitory concentration on Lowenstein-Jensen egg medium, normally sensitive test strain; format: cell-based; details: per ml of nutrient medium
[4] = test system: "Atypical mycobacteria" Runyon Grouping 1; test: Anti-mycobacterial spectrum of action (MIC), atypical mycobacteria Runyon grouping 1; format: cell-based; details: modified Difco-Tb-Bouillon
[5] = test system: "Atypical mycobacteria" Runyon Grouping 3; test: Anti-mycobacterial spectrum of action (MIC), atypical mycobacteria Runyon grouping 3; format: cell-based; details: modified Difco-Tb-Bouillon
[6] = test system: "Atypical mycobacteria" Runyon Grouping 2; test: Anti-mycobacterial spectrum of action (MIC), atypical mycobacteria Runyon grouping 2; format: cell-based; details: modified Difco-Tb-Bouillon
[7] = test system: "Atypical mycobacteria" Runyon Grouping 4; test: Anti-mycobacterial spectrum of action (MIC), atypical mycobacteria Runyon grouping 4; format: cell-based; details: modified Difco-Tb-Bouillon
[8] = test system: Mycobacterium tuberculosis H37Rv; test: MIC in modified Difco-Tb-Bouillon, normally sensitive strain; format: cell-based
M. bovis Ravenal = test: microbe, parasite or virus in culture; format: cell-based; details: Mycobacterium tuberculosis variant bovis, read-out: MIC, M. bovis Ravenal
[9] = Table 2, read-out: MIC, normally sensitive H37Rv (Table 2)
[10] = Table 3, read-out: MIC, M. tuberculosis H37Rv (Table 3)

Row | SMILES | In vivo action, index of reduction in Tb germs, Tb-guinea pigs, orally [1] | In vivo action, index of reduction in Tb germs, Tb-mice, orally [2] | In vivo action, index of reduction in Tb germs, Tb-mice, subcutaneously [2] | MIC [3] | MIC [4] | MIC [5] | MIC [6] | MIC [7] | MIC [8, 9] | MIC [8, 10] | MIC (M. bovis Ravenal)
1 | O=C(NCCc1ccccn1)c1cc([N+](=O)[O-])cc([N+](=O)[O-])c1 [Example 10] | 3 (reduction in the germ count of >70-90% = good action) | 2 (reduction in the germ count of >40-70% = distinct action) | 2 (reduction in the germ count of >40-70% = distinct action) | 1 µg/mL (≈ 3.16 µM) | – | – | – | – | – | – | –
2 | Cc1cccc(CNC(=O)c2cc([N+](=O)[O-])cc([N+](=O)[O-])c2)n1 [Example 14] | – | – | – | – | 6.2 µg/mL (≈ 19.6 µM) | 25 µg/mL (≈ 79 µM) | 12.5 µg/mL (≈ 39.5 µM) | 12.5 µg/mL (≈ 39.5 µM) | 3.1 µg/mL (≈ 9.8 µM) | 3.1 µg/mL (≈ 9.8 µM) | 3.1 µg/mL (≈ 9.8 µM)
3 | O=C(NCC1CCCO1)c1cc([N+](=O)[O-])cc([N+](=O)[O-])c1 (stereo not shown) [Example 20] | – | – | – | – | 6.2 µg/mL (≈ 21 µM) | 100 µg/mL (≈ 339 µM) | 6.2 µg/mL (≈ 21 µM) | 6.2 µg/mL (≈ 21 µM) | 1.6 µg/mL (≈ 5.42 µM) | 1.6 µg/mL (≈ 5.42 µM) | 3.1 µg/mL (≈ 10.5 µM)
4 | O=C(NCc1ccc2ccccc2n1)c1cc([N+](=O)[O-])cc([N+](=O)[O-])c1 [Example 15] | 3 (reduction in the germ count of >70-90% = good action) | 3 (reduction in the germ count of >70-90% = good action) | 2 (reduction in the germ count of >40-70% = distinct action) | 1 µg/mL (≈ 2.84 µM) | 1.6 µg/mL (≈ 4.54 µM) | 1.6 µg/mL (≈ 4.54 µM) | 6.2 µg/mL (≈ 17.6 µM) | 1.6 µg/mL (≈ 4.54 µM) | 0.2 µg/mL (≈ 0.568 µM) | 0.2 µg/mL (≈ 0.568 µM) | 0.8 µg/mL (≈ 2.27 µM)
5 | O=C(NCC1CCC=CO1)c1cc([N+](=O)[O-])cc([N+](=O)[O-])c1 (stereo not shown) [Example 22] | – | – | – | – | 1.6 µg/mL (≈ 5.21 µM) | > 100 µg/mL | 1.6 µg/mL (≈ 5.21 µM) | 1.6 µg/mL (≈ 5.21 µM) | 0.4 µg/mL (≈ 1.3 µM) | 0.4 µg/mL (≈ 1.3 µM) | 3.1 µg/mL (≈ 10.1 µM)
6 | O=C(NCc1ccccn1)c1cc([N+](=O)[O-])cc([N+](=O)[O-])c1 [Example 1, N-(pyrid-2-ylmethyl)-3,5-dinitrobenzoic acid amide] | 4 (reduction in the germ count of >90% = very good action) | 4 (reduction in the germ count of >90% = very good action) | 3 (reduction in the germ count of >70-90% = good action) | 1 µg/mL (≈ 3.31 µM) | 6.2 µg/mL (≈ 20.5 µM) | 50 µg/mL (≈ 165 µM) | 6.2 µg/mL (≈ 20.5 µM) | 6.2 µg/mL (≈ 20.5 µM) | 1.6 µg/mL (≈ 5.29 µM) | 1.6 µg/mL (≈ 5.29 µM) | 3.1 µg/mL (≈ 10.3 µM)
7 | O=C(NCc1ccncc1)c1cc([N+](=O)[O-])cc([N+](=O)[O-])c1 [Example 13] | 4 (reduction in the germ count of >90% = very good action) | 3 (reduction in the germ count of >70-90% = good action) | 2 (reduction in the germ count of >40-70% = distinct action) | 32 µg/mL (≈ 106 µM) | – | – | – | – | – | – | –
8 | O=C(NCc1cnc2ccccc2c1)c1cc([N+](=O)[O-])cc([N+](=O)[O-])c1 [Example 9] | 4 (reduction in the germ count of >90% = very good action) | 1 (reduction in the germ count of >20-40% = trace action) | 1 (reduction in the germ count of >20-40% = trace action) | 2 µg/mL (≈ 5.68 µM) | 3.1 µg/mL (≈ 8.8 µM) | > 100 µg/mL | 3.1 µg/mL (≈ 8.8 µM) | 1.6 µg/mL (≈ 4.54 µM) | 0.2 µg/mL (≈ 0.568 µM) | 0.2 µg/mL (≈ 0.568 µM) | 0.4 µg/mL (≈ 1.14 µM)
9 | O=C(NCc1cccnc1)c1cc([N+](=O)[O-])cc([N+](=O)[O-])c1 [Example 12] | 3 (reduction in the germ count of >70-90% = good action) | 2 (reduction in the germ count of >40-70% = distinct action) | 2 (reduction in the germ count of >40-70% = distinct action) | 32 µg/mL (≈ 106 µM) | – | – | – | – | – | – | –
10 | CC(NC(=O)c1cc([N+](=O)[O-])cc([N+](=O)[O-])c1)c1ccccn1 (stereo not shown) [Example 29] | – | 4 (reduction in the germ count of >90% = very good action) | 3 (reduction in the germ count of >70-90% = good action) | 2 µg/mL (≈ 6.32 µM) | 3.1 µg/mL (≈ 9.8 µM) | 100 µg/mL (≈ 316 µM) | 3.1 µg/mL (≈ 9.8 µM) | 3.1 µg/mL (≈ 9.8 µM) | 1.6 µg/mL (≈ 5.06 µM) | 1.6 µg/mL (≈ 5.06 µM) | 3.1 µg/mL (≈ 9.8 µM)
